According to US20230241155A1, “METHODS AND MEANS FOR MODIFYING HEMODYNAMICS IN INFECTIONS” (Biotempt B.V., priority 2020, published 2023):
“Also recorded” adds a separate entry of the source. Like-named read-outs stand apart in the source and are kept apart here. Peptide text beside a SMILES is read from it.

What was measured:
[1] = Solubility / aggregation screen of AQGV peptide salts; details: for aggregation in aqueous solution: in relation to peptide-acetate aggregation
Excerpt: FIG. 7: Overview of solubility experiments with results in Table 1.

[2] = Adverse events (AEs) in the EASI-study (phase II, CABG patients); format: in vivo, human
Procedure: A prospective, randomized, double-blind, placebo-controlled study was performed in which 180 elective patients undergoing on-pump coronary artery bypass grafting were enrolled. Patients were randomized in a 1:1 ratio and received either EA-230, 90 mg/kg/hour, or a placebo. These were infused at the start of the surgical procedure until the end of the use of the cardiopulmonary bypass. The main focus in this first-in-patient study was on safety and tolerability of EA-230. The primary efficacy endpoint was the modulation of the inflammatory response by EA-230. A key secondary endpoint was the effect of EA-230 on renal function.
The present study was a single-center, prospective, double-blind, placebo-controlled, randomized, single-dose phase II study. It has an adaptive design to evaluate the safety and immunomodulatory effects of EA-230 in patients undergoing for coronary artery bypass grafting (CABG). 180 eligible patients were included and were randomized to receive either active or placebo treatment in a 1:1 ratio. This was a first-in-patient safety and tolerability study, of which the primary efficacy objective was to assess the immunomodulatory effects of EA-230. The key-secondary efficacy endpoint was the effect of EA-230 on renal function. This study was described in accordance with the Standard Protocol Items: Recommendations for Interventional Trial (SPIRIT) guidelines, and registered at clinicaltrials.gov under number NCT03145220.
Intravenous infusion of EA-230, 90 mg/kg/hour, or placebo, was initiated at the moment of first surgical incision using an automated infusion pump. Infusion rate was set at 250 mL/hour, and infusion was continued until cessation of the CPB, or after 4 hours of continuous infusion, whichever comes first.
All AEs were judged by the investigators with regard to severity (“mild, moderate, or severe”) according to Common Terminology Criteria for Adverse Events guidelines 4.030 and their perceived relation to the study drug (“definitely, probably, possibly, or unrelated/unlikely to be related”). SAEs or SUSARs include death, life-threatening disease, persistent and/or significant disability and/or incapacity, and hospitalization and/or prolongation of inpatient hospitalization.

## AQGV-citrate
[1]
  behaviour of highly concentrated solution: does not crystallize or aggregate but tend to form a highly viscous solution
  solubility (aggregation point): Higher solubility
  aggregation in aqueous solution: (strongly) reduced aggregation

## Nc1ncnc2c1ncn2[C@@H]1O[C@H](COP(=O)(O)O)[C@@H](O)[C@H]1O [adenosine-monophosphate]
[1]
  solubility (aggregation point): did not provide solubility
  aggregation in aqueous solution: aggravated aggregation

## O=C(O)/C=C\C(=O)O [maleic acid]
[1]
  aggregation in aqueous solution: aggravated aggregation
[1]; solubility in 0.9% NaCl, compared to AQGV-Ac
  solubility (aggregation point): lower solubility

## Nc1ncnc2c1ncn2[C@@H]1O[C@H](CO)[C@@H](O)[C@H]1O [adenosine]
[1]
  solubility (aggregation point): did not provide solubility
  aggregation in aqueous solution: aggravated aggregation

## CC(C)[C@H](NC(=O)CNC(=O)[C@H](CCC(N)=O)NC(=O)[C@H](C)N)C(=O)O [EA-230, AQGV] (H-AQGV-OH)
[2]; EA-230 group N = 91
  AE of mild intensity, % of patients: (83.5) %
  AE of mild intensity, e = Number of events: 188
  AE of mild intensity, n = Number of patients experiencing the event: 76
  AE of moderate intensity, % of patients: (24.2) %
  AE of moderate intensity, e = Number of events: 23
  AE of moderate intensity, n = Number of patients experiencing the event: 22
  AE of severe intensity, % of patients: (5.5) %
  AE of severe intensity, e = Number of events: 6
  AE of severe intensity, n = Number of patients experiencing the event: 5
  Anemia, % of patients: (5.5) %
  Anemia, e = Number of events: 5
  Anemia, n = Number of patients experiencing the event: 5
  Any AE, % of patients: (85.7) %
  Any AE, n = Number of patients experiencing the event: 78
  Any SAE, % of patients: (13.2) %
  Any SAE, e = Number of events: 23
  Any SAE, n = Number of patients experiencing the event: 12
  Any SUSAR, % of patients: (0) %
  Any SUSAR, e = Number of events: 0
  Any SUSAR, n = Number of patients experiencing the event: 0
  Blood and lymphatic system disorders Overall, % of patients: (5.5) %
  Blood and lymphatic system disorders Overall, e = Number of events: 6
  Blood and lymphatic system disorders Overall, n = Number of patients experiencing the event: 5
  Delirium, % of patients: (5.5) %
  Delirium, e = Number of events: 5
  Delirium, n = Number of patients experiencing the event: 5
  Fluid retention, % of patients: (2.2) %
  Fluid retention, e = Number of events: 2
  Fluid retention, n = Number of patients experiencing the event: 2
  Gastrointestinal disorders Overall, % of patients: (23.1) %
  Gastrointestinal disorders Overall, e = Number of events: 27
  Gastrointestinal disorders Overall, n = Number of patients experiencing the event: 21
  Hemorrhagic diathesis, % of patients: (1.1) %
  Hemorrhagic diathesis, e = Number of events: 1
  Hemorrhagic diathesis, n = Number of patients experiencing the event: 1
  Infections and infestations Overall, % of patients: (14.3) %
  Infections and infestations Overall, e = Number of events: 15
  Infections and infestations Overall, n = Number of patients experiencing the event: 13
  Metabolism and nutrition disorders Overall, % of patients: (11) %
  Metabolism and nutrition disorders Overall, e = Number of events: 10
  Metabolism and nutrition disorders Overall, n = Number of patients experiencing the event: 10
  Nausea, % of patients: (16.5) %
  Nausea, e = Number of events: 15
  Nausea, n = Number of patients experiencing the event: 15
  Psychiatric disorders Overall, % of patients: (9.9) %
  Psychiatric disorders Overall, e = Number of events: 9
  Psychiatric disorders Overall, n = Number of patients experiencing the event: 9
  Renal and urinary disorders Overall, % of patients: (4.4) %
  Renal and urinary disorders Overall, e = Number of events: 4
  Renal and urinary disorders Overall, n = Number of patients experiencing the event: 4
[2]; clinical trials / throughout surgery
  safety and tolerability: safe and well tolerated; also recorded: found to be safe
